Assay results from the supplement of paper PMC4862054.

Key:
Assay in all cases: normalised viability (% of control), CellTiter-Blue; higher = more viable cells (about 100 = DMSO control)
[1] = test system: BT-549; details: 100 nM; incubation time: 72 h
Protocol: (§1)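 DSRT, CellTiter-Blue viability, 72 h incubation. Signal is normalised to DMSO and benzethonium chloride controls. Value is the normalised response at dose 3.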

[2] = test system: CAL-120; details: 100 nM; incubation time: 72 h
Protocol: as §1

[3] = test system: DU-4475; details: 10 nM; incubation time: 72 h
Protocol: as §1

[4] = test system: HCC1937; details: 100 nM; incubation time: 72 h
Protocol: as §1

[5] = test system: HDQ-P1; details: 10 nM; incubation time: 72 h
Protocol: as §1

[6] = test system: MDA-MB-231; details: 100 nM; incubation time: 72 h
Protocol: as §1

[7] = test system: MDA-MB-468; details: 100 nM; incubation time: 72 h
Protocol: as §1

[8] = test system: SK-BR-3; details: 100 nM; incubation time: 72 h
Protocol: as §1

[9] = test system: BT-474; details: incubation time: 72 h
Summary of the method: (§2)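 Vehicle (100) and a positive kill control (0) anchored the normalisation of each plate, and Z'-factor was used for quality control. Breast cancer cell lines in 20 µl suspension were incubated 72 h over compound in 5 µl medium in 384-well plates, followed by CellTiter-Blue at 560/590 nm. The value is normalised viability at a single listed concentration of the series.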

[10] = test system: BT-549; details: incubation time: 72 h
Summary of the method: as §2

[11] = test system: CAL-120; details: incubation time: 72 h
Summary of the method: as §2

[12] = test system: CAL-148; details: incubation time: 72 h
Summary of the method: as §2

[13] = test system: CAL-51; details: incubation time: 72 h
Summary of the method: as §2

[14] = test system: CAL-85-1; details: incubation time: 72 h
Summary of the method: as §2

[15] = test system: DU-4475; details: incubation time: 72 h
Summary of the method: as §2

[16] = test system: HCC1143; details: incubation time: 72 h
Summary of the method: as §2

[17] = test system: HCC1599; details: incubation time: 72 h
Summary of the method: as §2

[18] = test system: HCC1937; details: incubation time: 72 h
Summary of the method: as §2

[19] = test system: HDQ-P1; details: incubation time: 72 h
Summary of the method: as §2

[20] = test system: Hs578T; details: incubation time: 72 h
Summary of the method: as §2

[21] = test system: MDA-MB-231; details: incubation time: 72 h
Summary of the method: as §2

[22] = test system: MDA-MB-436; details: incubation time: 72 h
Summary of the method: as §2

[23] = test system: MDA-MB-453; details: incubation time: 72 h
Summary of the method: as §2

[24] = test system: MDA-MB-468; details: incubation time: 72 h
Summary of the method: as §2

[25] = test system: MFM-223; details: incubation time: 72 h
Summary of the method: as §2

[26] = test system: SK-BR-3; details: incubation time: 72 h
Summary of the method: as §2

N#CC[C@H](C1CCCC1)n1cc(-c2ncnc3[nH]ccc23)cn1 [Ruxolitinib]
Details	normalised viability [%]
[1]	74.5
[2]	97.5
[3]	101
[4]	81.1
[5]	74.4
[6]	90.8
[7]	100
[8]	85.1

normalised viability [%]
Details	3 nM	10 nM	30 nM	100 nM	1000 nM	10000 nM
[9]	–	108	–	–	103	119
[10]	–	86.3	–	–	90.9	73.4
[11]	–	102	–	–	99	94.5
[12]	92	–	82.4	94.1	–	–
[13]	84.6	–	97	97.4	–	–
[14]	114	–	90.4	110	–	–
[15]	103	–	106	121	–	–
[16]	–	107	–	–	107	98.2
[17]	–	114	–	–	102	91.1
[18]	–	114	–	–	94.1	74
[19]	84	–	83.6	104	–	–
[20]	–	108	–	–	104	93.5
[21]	–	72.7	–	–	101	110
[22]	–	93.2	–	–	112	102
[23]	86.8	–	89.2	93.9	–	–
[24]	–	90.5	–	–	104	100
[25]	–	101	–	–	98.6	75.3
[26]	–	95.4	–	–	87.3	103

CN1CC[C@H](c2c(O)cc(O)c3c(=O)cc(-c4ccccc4Cl)oc23)[C@H](O)C1 [Alvocidib]
Details	normalised viability [%]
[1]	95.6
[2]	68.2
[3]	93
[4]	69.4
[5]	106
[6]	82.9
[7]	91.5
[8]	46.9

normalised viability [%]
Details	3 nM	10 nM	30 nM	100 nM	1000 nM	10000 nM
[9]	–	102	–	–	23	26.6
[10]	–	92	–	–	9	7.78
[11]	–	67.7	–	–	10.7	11.1
[12]	86	–	89.6	70.8	–	–
[13]	109	–	92.5	78.1	–	–
[14]	82.7	–	79.9	76.6	–	–
[15]	90.7	–	79.2	78.6	–	–
[16]	–	76.5	–	–	14.1	15.1
[17]	–	124	–	–	19.6	21.9
[18]	–	79.5	–	–	15	18.7
[19]	88.6	–	87.6	84.2	–	–
[20]	–	90.8	–	–	4.18	2.76
[21]	–	88.2	–	–	7.07	6.37
[22]	–	91	–	–	14.9	15.8
[23]	104	–	91.4	73	–	–
[24]	–	108	–	–	10.4	5.45
[25]	–	87.3	–	–	8.79	8.79
[26]	–	88.5	–	–	4.29	5.99

Nc1ccn([C@@H]2O[C@H](CO)[C@@H](O)[C@@H]2O)c(=O)n1 [Cytarabine]
Details	normalised viability [%]
[1]	67.9
[2]	82.4
[3]	137
[4]	76.3
[5]	94.6
[6]	86.3
[7]	95.1
[8]	81.2

normalised viability [%]
Details	3 nM	10 nM	30 nM	100 nM	1000 nM	10000 nM
[9]	–	103	–	–	95.7	93.4
[10]	–	87.2	–	–	65.7	62.9
[11]	–	95.6	–	–	66.4	56.9
[12]	95.9	–	68.9	47.9	–	–
[13]	94.1	–	91.9	79.8	–	–
[14]	106	–	97.4	104	–	–
[15]	121	–	87.8	93.9	–	–
[16]	–	80.5	–	–	71.4	63
[17]	–	109	–	–	78.7	77.4
[18]	–	124	–	–	41.6	42.6
[19]	80.6	–	94.8	42.5	–	–
[20]	–	90.4	–	–	67.8	62.3
[21]	–	100	–	–	67	61.7
[22]	–	98.2	–	–	74.3	74.1
[23]	101	–	111	94.9	–	–
[24]	–	101	–	–	68.4	57.2
[25]	–	107	–	–	95.6	97.3
[26]	–	97.3	–	–	64.7	47.2

COc1cccc2cc(-c3nc([C@H]4CC[C@H](C(=O)O)CC4)n4ncnc(N)c34)[nH]c12 [OSI-027]
Details	normalised viability [%]
[1]	71.9
[2]	91.9
[3]	105
[4]	84
[5]	78.5
[6]	72.1
[7]	84.4
[8]	48.6

normalised viability [%]
Details	3 nM	10 nM	30 nM	100 nM	1000 nM	10000 nM
[9]	–	106	–	–	54.2	25.9
[10]	–	98.9	–	–	76	16.1
[11]	–	101	–	–	66.4	12.5
[12]	86.7	–	87.5	82.2	–	–
[13]	97.3	–	93.8	84.6	–	–
[14]	95.4	–	83.2	100	–	–
[15]	96.6	–	92.5	82.5	–	–
[16]	–	101	–	–	72.9	35
[17]	–	106	–	–	72.4	47
[18]	–	71.7	–	–	59.8	33.9
[19]	78.3	–	80.4	76.8	–	–
[20]	–	99.4	–	–	59.1	23.6
[21]	–	87.4	–	–	69.4	25.9
[22]	–	76.6	–	–	56.4	31.6
[23]	79	–	88.2	71.6	–	–
[24]	–	87.8	–	–	66.4	22
[25]	–	101	–	–	34.9	16
[26]	–	93.7	–	–	19	13.1
